In publication PMC6370995, “Phase I study of PF‐04895162, a Kv7 channel opener, reveals unexpected hepatotoxicity in healthy subjects, but not rats or monkeys: clinical evidence of disrupted bile acid homeostasis” (Pharmacology Research & Perspectives, 2019):
Like-named read-outs stand apart in the source and are kept apart here.

Key:
MRP3 = biological target: T1, MRP3 (Homo sapiens, UniProt O15438); assay: MRP3 transporter inhibition in vesicles from HEK293 cells; format: biochemical
T1 construct: host or cells: membrane vesicles from HEK293 cells
Text: […]

Sprague-Dawley rats [1] = assay: 7-Day Oral Toxicity Study in Rats (twice daily dosing, GLP); format: in vivo
[2] = as above; format: in vivo; details: rat, in vivo, Day 7, 400 mg/kg/day
[3] = system: liver mitochondrial function; assay: mitochondrial state 3/4 respiration in the presence of glutamate/malate; format: biochemical; details: N = 2
Text: […]

MRP4 = biological target: T2, MRP4 (Homo sapiens, UniProt O15439); assay: MRP4 transporter inhibition in vesicles from HEK293 cells; format: biochemical
T2 construct: host or cells: membrane vesicles from HEK293 cells
T2 sequence (O15439 1-1325): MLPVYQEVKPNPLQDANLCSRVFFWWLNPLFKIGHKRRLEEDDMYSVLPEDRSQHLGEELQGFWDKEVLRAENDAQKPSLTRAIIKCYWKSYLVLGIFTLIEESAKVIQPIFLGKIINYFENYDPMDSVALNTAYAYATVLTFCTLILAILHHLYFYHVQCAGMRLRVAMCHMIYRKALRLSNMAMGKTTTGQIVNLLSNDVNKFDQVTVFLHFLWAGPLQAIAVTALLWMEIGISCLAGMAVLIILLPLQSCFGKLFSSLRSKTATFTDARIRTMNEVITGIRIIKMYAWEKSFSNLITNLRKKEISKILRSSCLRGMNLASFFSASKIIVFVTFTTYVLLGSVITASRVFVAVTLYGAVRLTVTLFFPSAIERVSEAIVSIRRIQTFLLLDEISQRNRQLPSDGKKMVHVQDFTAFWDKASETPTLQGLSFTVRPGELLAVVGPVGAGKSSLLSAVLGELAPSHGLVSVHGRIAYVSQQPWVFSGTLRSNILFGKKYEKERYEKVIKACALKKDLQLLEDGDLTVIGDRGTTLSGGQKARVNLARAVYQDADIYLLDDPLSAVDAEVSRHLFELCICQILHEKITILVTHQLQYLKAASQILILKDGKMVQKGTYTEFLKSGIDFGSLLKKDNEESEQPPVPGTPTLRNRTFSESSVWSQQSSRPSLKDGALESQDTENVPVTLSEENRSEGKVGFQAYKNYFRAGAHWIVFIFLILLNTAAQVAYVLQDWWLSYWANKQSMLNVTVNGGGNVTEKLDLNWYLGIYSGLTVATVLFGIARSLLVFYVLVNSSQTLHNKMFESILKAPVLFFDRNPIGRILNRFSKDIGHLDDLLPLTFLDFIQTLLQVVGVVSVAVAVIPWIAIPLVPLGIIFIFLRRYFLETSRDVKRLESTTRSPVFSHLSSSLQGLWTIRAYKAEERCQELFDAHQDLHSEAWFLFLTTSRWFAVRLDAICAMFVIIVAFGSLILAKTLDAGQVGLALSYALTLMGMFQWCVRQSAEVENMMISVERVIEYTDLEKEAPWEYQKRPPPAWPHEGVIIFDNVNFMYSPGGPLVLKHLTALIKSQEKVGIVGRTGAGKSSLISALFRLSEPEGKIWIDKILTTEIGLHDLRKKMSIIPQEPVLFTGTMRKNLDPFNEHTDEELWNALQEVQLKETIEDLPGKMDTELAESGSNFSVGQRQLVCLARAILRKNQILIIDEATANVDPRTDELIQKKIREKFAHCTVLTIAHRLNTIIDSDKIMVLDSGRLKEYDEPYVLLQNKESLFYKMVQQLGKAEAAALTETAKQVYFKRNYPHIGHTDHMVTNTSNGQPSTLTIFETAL
Text: […]

Sprague-Dawley rats [4] = assay: Preliminary 7-Day Oral Toxicity Study in Rats; format: in vivo; details: for gross pathology: animals with impacted feces / microscopic changes in liver (and kidneys): 7 days; for gross pathology: animals with impacted feces: 10 M per group; for microscopic changes in liver (and kidneys): high-dose animals (300 mg/kg); for ALT: once daily for 7 days, 10 to 300 mg/kg/day PO
cynomolgus monkeys = assay: 28-day Nasogastric Intubation Toxicity Study in Cynomolgus Monkeys; format: in vivo, cynomolgus monkey
Method: A 28-day nasogastric toxicity study was conducted in cynomolgus monkeys at up to 100 mg/kg/day and a 9-month oral toxicity study with a 3-month interim sacrifice was conducted in cynomolgus monkeys at up to 100 mg/kg/day.

healthy subjects = assay: Biomarkers of liver injury in residual plasma PK samples (miRNA122, total and fractionated bile acids); format: in vivo, human; details: 300 mg BID
Method: Methodology for the following in vitro assays and biomarker determinations were as follows: THLE/HepG2 72 hour cytotoxicity assays based on ATP depletion;14 mitochondrial functional assessment based on state 3/4 respiration determination in the presence of glutamate/malate15, 16 or fatty acid oxidation inhibition using palmitate;17 BSEP inhibition in vesicles using tritium labeled taurocholic acid (TCA);18 human hepatocyte imaging assay determination of cell loss, mitochondrial membrane permeability, glutathione content, and production of reactive oxygen species;19 miRNA‐122 determination using QuantiGene 2.0 miRNA;20 human multidrug resistance protein 3 inhibition/activation (MDR3, encoded by ABCB4) was determined at Biotranex based on biotransformation of d 9‐choline to d 9‐phosphatidylcholine in human hepatocytes;21 and fractionated bile acid determinations were conducted by LC‐MS/MS methodology.22 These various assays have been published in detail and used by us in previous investigative works.2, 3, 21 Examination of human sodium/taurocholate cotransporting polypeptide (NTCP, encoded by SLC10A1) was determined based on uptake of tritium labeled TCA in CHO cells and human multidrug resistance‐associated protein 3/4 (MRP3/4, encoded by ABCC3/4) transporter inhibition in vesicles obtained from HEK293 cells using tritium labeled estradiol 17 β‐D‐glucuronide and dehydroepiandrosterone sulfate as substrates, respectively.
Three of eight treated healthy subjects consented for additional analyses of residual plasma PK samples for biomarkers of liver injury (e.g., miRNA122, total, and fractionated bile acids).

[5] = 100, 200, and 400 mg/kg/day, 7 days
[6] = twice daily for 7 days, up to 400 mg/kg/day

T1 sequence (O15438 whole entry): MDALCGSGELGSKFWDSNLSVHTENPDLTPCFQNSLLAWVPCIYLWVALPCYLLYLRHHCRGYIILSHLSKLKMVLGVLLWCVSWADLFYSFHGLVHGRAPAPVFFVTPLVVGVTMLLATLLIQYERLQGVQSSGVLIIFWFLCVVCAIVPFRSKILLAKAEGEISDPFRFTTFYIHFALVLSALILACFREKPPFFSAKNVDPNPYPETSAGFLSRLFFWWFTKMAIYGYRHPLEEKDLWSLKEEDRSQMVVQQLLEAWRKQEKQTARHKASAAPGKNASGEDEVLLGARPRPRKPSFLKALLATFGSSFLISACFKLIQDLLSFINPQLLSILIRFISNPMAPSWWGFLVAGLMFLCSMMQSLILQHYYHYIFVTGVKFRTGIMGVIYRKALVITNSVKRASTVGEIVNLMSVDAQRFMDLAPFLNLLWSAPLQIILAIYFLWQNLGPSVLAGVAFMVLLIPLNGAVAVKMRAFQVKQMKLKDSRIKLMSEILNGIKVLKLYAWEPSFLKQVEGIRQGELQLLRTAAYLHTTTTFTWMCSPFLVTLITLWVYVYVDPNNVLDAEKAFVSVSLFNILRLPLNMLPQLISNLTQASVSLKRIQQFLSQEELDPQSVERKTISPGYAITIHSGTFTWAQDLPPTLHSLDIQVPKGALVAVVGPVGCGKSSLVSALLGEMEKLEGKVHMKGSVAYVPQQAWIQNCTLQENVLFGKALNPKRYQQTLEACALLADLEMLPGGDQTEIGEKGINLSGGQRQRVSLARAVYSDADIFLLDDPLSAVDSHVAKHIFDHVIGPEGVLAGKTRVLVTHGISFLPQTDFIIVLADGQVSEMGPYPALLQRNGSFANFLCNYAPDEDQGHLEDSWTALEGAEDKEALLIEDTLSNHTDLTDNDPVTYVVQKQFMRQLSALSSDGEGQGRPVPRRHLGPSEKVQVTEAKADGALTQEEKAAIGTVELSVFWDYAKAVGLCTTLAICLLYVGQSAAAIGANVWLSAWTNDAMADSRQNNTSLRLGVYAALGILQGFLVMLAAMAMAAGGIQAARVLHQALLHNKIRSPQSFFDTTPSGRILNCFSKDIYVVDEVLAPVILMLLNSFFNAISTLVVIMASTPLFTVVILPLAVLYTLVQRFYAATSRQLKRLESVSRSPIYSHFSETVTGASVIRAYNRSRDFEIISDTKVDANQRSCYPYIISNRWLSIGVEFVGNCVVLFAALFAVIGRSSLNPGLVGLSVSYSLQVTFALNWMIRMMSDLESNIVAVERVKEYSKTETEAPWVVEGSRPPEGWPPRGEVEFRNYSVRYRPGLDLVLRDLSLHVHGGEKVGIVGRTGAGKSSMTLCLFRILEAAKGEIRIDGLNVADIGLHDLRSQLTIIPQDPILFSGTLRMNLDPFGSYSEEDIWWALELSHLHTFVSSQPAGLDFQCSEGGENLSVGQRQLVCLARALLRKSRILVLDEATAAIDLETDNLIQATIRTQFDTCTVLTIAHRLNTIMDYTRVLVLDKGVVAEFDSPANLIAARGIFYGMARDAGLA

## O=C(Cc1ccc(F)cc1)Nn1c(C2CC2)nc2cc(F)ccc2c1=O [PF‐04895162, N‐(2‐cyclopropyl‐7‐fluoro‐4‐oxoquinazolin‐3(4H)‐yl)‐2‐(4‐fluorophenyl)ethanamide]
MRP3
  effect on MRP3: no inhibitory effect
Sprague-Dawley rats [1]; [5]
  Clinical findings and body temperature: test article-induced hypothermic condition
  hematology parameters: no adverse test article-related effects
  mortality: All main study animals survived to study termination
Sprague-Dawley rats [1]; treated males and females
  body weight and food consumption: Decreases in body weight and food consumption
Sprague-Dawley rats [1]; [6]
  ALT: did not reproduce ALT findings
  liver weight: increased liver weight in female rats
[2]; female, read-out: Total Cmax (mean), female rats
  Cmax: 10300 ng/mL
[2]; male, read-out: Total Cmax (mean), male rats
  Cmax: 7920 ng/mL
[3]; read-out: IC50 for inhibition of glutamate/malate respiration
  IC50: ~10 µM
[3]; read-out: IC50 for uncoupling activity
  IC50: > 100 µM
MRP4
  IC50: 121 µM
Sprague-Dawley rats [4]; 100 mg/kg
  gross pathology: animals with impacted feces: 1
Sprague-Dawley rats [4]; 300 mg/kg
  gross pathology: animals with impacted feces: 6
Sprague-Dawley rats [4]; 30, 100, and 300 mg/kg on Day 1 and 300 mg/kg on Day 7
  body temperature: decreased
Sprague-Dawley rats [4]; Days 3, 5, and 7 at 30, 100, and 300 mg/kg
  Body weight gain: suppressed
Sprague-Dawley rats [4]; early in the study, primarily at 300 mg/kg
  clinical signs: tremor, splayed stance, altered gait, piloerection, and mild tremors
Sprague-Dawley rats [4]
  microscopic changes in liver (and kidneys): no microscopic changes in the liver or kidneys
  ALT: dose-dependent increases in ALT
Sprague-Dawley rats [4]; listed as PF-04895162
  microscopic changes in liver (and kidneys): no microscopic changes in the liver
Sprague-Dawley rats [4]; listed as ICA-105665
  ALT: increased in a dose-dependent manner
Cynomolgus monkeys; 30 mg/kg/day, females
  vomitus, incidence: 1/5
Cynomolgus monkeys; 30 mg/kg/day, males
  vomitus, incidence: 1/5
Cynomolgus monkeys; 100 mg/kg/day, 28 days
  parent AUC24 at the end of the study: mild autoinduction of metabolism
Cynomolgus monkeys; 100 mg/kg/day, females
  ataxia, incidence: 2/5
  body tremors, incidence: 3/5
  dilated pupils, incidence: 4/5
  hunched posture, incidence: 3/5
  squinting, incidence: 1/5
  vomitus, incidence: 2/5
Cynomolgus monkeys; 100 mg/kg/day, males
  ataxia, incidence: 2/5
  body tremors, incidence: 4/5
  dilated pupils, incidence: 4/5
  hunched posture, incidence: 3/5
  hypoactivity, incidence: 2/5
  vomitus, incidence: 1/5
Cynomolgus monkeys; 3, 10, 30, 100 mg/kg/day, 28 days
  survival: All animals survived to their scheduled termination
Cynomolgus monkeys; 30 and 100 mg/kg/day, 1, 2, and/or 4 hours post-dose, first day of treatment
  mean body (rectal) temperatures: larger decreases in mean body (rectal) temperatures
Cynomolgus monkeys; 28 days, up to 100 mg/kg/day
  hematology, coagulation, clinical chemistry, macroscopic and microscopic pathology: No effect of treatment
Healthy subjects; Period 3
  plasma miRNA122, Subject 8: elevated (>ULN) by Day 5
Healthy subjects; Period 3, normal range <10 μmol/L
  fasting total bile acid levels of treated subjects: within the normal range
Healthy subjects; Day 7, AUC 0-12 h
  hydrophobicity index of serum bile acids, Subject 6: 0.47
  hydrophobicity index of serum bile acids, Subject 8: 0.40
  hydrophobicity index of serum bile acids, Subject 10: 0.45
